According to patent US20070049585A1, “BENZAMIDE AND BENZOATE ANTI-HIV COMPOUNDS” (priority 2004, published 2007):
pIC50: −log10 of the molar value. Entries after “also recorded” stand apart in the source; their conditions may differ. Read-outs that look alike come from different tables or passages of the source.

Key:
HIV-1 IIIB = test: AV-Finder-HIV Drug Discovery Assay: inhibition of HIV-1 IIIB replication in HeLa indicator cells (GFP fluorescence); assay type: cell-based
From the text: In order to study the viral replication in vitro, the GenPhar (Mt. Pleasant, S.C.) AV-Finder™-HIV Drug Discovery Assay was used, that consists of two components: (1) a cloned, continuous-passage HeLa cell line containing an HIV-1 tat-activated molecular switch and a Green Fluorescent Protein reporter gene and (2) a recombinant adenovirus (rAd) vector containing the genes for all three of the HIV-1 receptor/co-receptors (CD4, CXCR4, and CCR5) to transduce into HeLa cells and convert them into highly susceptible HIV-1 indicator cells for use in the assay. The indicator cells over-express the HIV-1 receptor genes and are readily infected with any HIV-1 strain or isolate. […] Infected cells fluoresce brightly so that the inhibition of virus replication by potential antiviral drugs can be readily detected and quantified using standard laboratory plate reader technology.
(§1) Detector plates are set up at day 1 by adding HeLa cells (3000/well) to the adenovirus AD-3R in DMEM containing CCS in 96-well plates and to incubate at 37° C. under 95% humidity and 5% CO2 for 2 days. […] At day 4, the medium was replaced by fresh medium containing the corresponding concentration of the compounds of interest. The infectivity was assessed by measuring the fluorescence on each well at day 7 ([…]). […] At day 5, the medium was replaced by fresh medium containing the corresponding concentration of compounds of interest and the infectivity was assessed by measuring the fluorescence on each well at day 8. Results are expressed as percentage of inhibition of the viral replication.
Procaine HCl was used either alone dissolved in water (SP01) or in an Anticort-like formulation (SP01A) containing zinc sulfate heptahydrate and ascorbic acid at the ratio of about 27-107/1/1.3-2.0 (for example 200 mg procaine HCl with 7.5 mg of zinc sulfate heptahydrate and 12.5 mg of ascorbic acid; Xu, J. et al. J Pharmacol. Exper. Ther. 2003 307:1148-1157) (Samaritan Pharmaceuticals).

HIV MDR 769 strain = test: Inhibition of multi-drug resistant HIV MDR 769 strain replication in HeLa cells, without pre-medication; assay type: cell-based
From the text: In order to study the viral replication in vitro, the GenPhar (Mt. Pleasant, S.C.) AV-Finder™-HIV Drug Discovery Assay was used, that consists of two components: (1) a cloned, continuous-passage HeLa cell line containing an HIV-1 tat-activated molecular switch and a Green Fluorescent Protein reporter gene and (2) a recombinant adenovirus (rAd) vector containing the genes for all three of the HIV-1 receptor/co-receptors (CD4, CXCR4, and CCR5) to transduce into HeLa cells and convert them into highly susceptible HIV-1 indicator cells for use in the assay. The indicator cells over-express the HIV-1 receptor genes and are readily infected with any HIV-1 strain or isolate. All HIV-1 strains tested thus far, regardless of co-receptor preference, and all subtypes or clades of HIV-1 will infect these indicator cells. Infected cells fluoresce brightly so that the inhibition of virus replication by potential antiviral drugs can be readily detected and quantified using standard laboratory plate reader technology.
as §1

HeLa cells = test: MTT cytotoxicity assay (mitochondrial integrity); assay type: cell-based, human
Method: Following the above described cell treatment protocol, the levels of cellular 3-(4,5-dimethylthiazol-2-yl)-2,5-diphenyl tetrazolium bromide (MTT) reduction, a measure of mitochondrial integrity, were determined in order to examine whether the compounds tested were cytotoxic.

Structure (SMILES): Nc1ccn([C@@H]2CS[C@H](CO)O2)c(=O)n1 [3TC]
- inhibition of viral replication reached (maximal) (HIV-1 IIIB; no pre-medication, dose-dependent, maximal concentrations): 90%

Structure (SMILES): Cc1cn([C@H]2C[C@H](N=[N+]=[N-])[C@@H](CO)O2)c(=O)[nH]c1=O [AZT]
- inhibition of the replication at the peak concentration (HIV-1 IIIB; 24 hours pre-medication, 30 pM): < 30%
- pIC50 (HIV-1 IIIB; 48 hours pretreatment): 7.52
- effect on HIV MDR 769 strain replication (HIV MDR 769 strain): ineffective; also recorded: not effective
- pIC50 (HeLa cells): 3.79

Structure (SMILES): CCN(CC)CCOC(=O)c1ccc(N)cc1 [SP01, 4-aminobenzoic acid 2-(diethylamino)ethyl ester]
- inhibition of HIV replication (HIV-1 IIIB; 48 hours pretreatment, all concentrations tested): 75%
- efficacy in reducing HIV-1 IIIB replication compared with AZT, ddI or 3TC (HIV-1 IIIB; human cells): efficacy higher than AZT, ddI or 3TC
- efficacy of inhibition of HIV-1 IIIB viral replication compared with 3TC (HIV-1 IIIB; no pre-medication, concentrations up to 0.1 μM): higher efficacy than the classical antiviral agent 3TC
- effect on HIV MDR 769 strain replication (HIV MDR 769 strain): effectively blocked
- effect on HIV MDR 769 strain replication (HIV MDR 769 strain; concentrations higher than 1 nM): not effective
- inhibition of HIV MDR 769 viral replication (HIV MDR 769 strain; concentrations up to 1 nM): 75%
- cell toxicity by MTT cytotoxicity assay (HeLa cells; all concentrations tested, up to 100 μM): devoid of cell toxicity

Structure (SMILES): CCN(CC)CCNC(=O)c1ccc(N)cc1 [SP100, procainamide]
- effect on HIV MDR 769 strain replication (HIV MDR 769 strain): effectively blocked

Structure (SMILES): O=c1[nH]cnc2c1ncn2[C@H]1CC[C@@H](CO)O1 [ddI]
- inhibition of viral replication (strongest inhibition) (HIV-1 IIIB; no pre-medication, 0.01 μM): 26.37±26.11%
- pIC50 (HeLa cells): 4.05
